Values quoted from earlier work, collected in US20230226079A1, “METHODS AND COMPOSITIONS FOR TREATMENT OF SOLID TUMORS” (Saint Louis University, priority 2022, published 2023).

Columns and labels:
different models = details: cited from earlier work
[1] = in vivo; cited from earlier work
[2] = literature; cited from earlier work

eleostearic acids
anticancer effect (different models): showed anticancer effect

COc1cc2c(Oc3ccc(NC(=O)C4(C(=O)Nc5ccc(F)cc5)CC4)cc3F)ccnc2cc1OCCCN1CCOCC1 [Foretinib]
adverse side effects [1]: fatigue, hypertension, and gastrointestinal toxicities

Karayiloside XI
Reported Biology [2]: Antidiabetic

Sacranoside A
Reported Biology [2]: nitric oxide inhibitory

CN1CCN(C2CCN(C(=O)Nc3cc(Oc4ccc(NC(=O)C5(C(=O)Nc6ccc(F)cc6)CC5)c(F)c4)ccn3)CC2)CC1 [Golvatinib]
adverse side effects [1]: supraventricular tachycardia, convulsion, and pulmonary embolism

CO[C@H]1C=C2[C@@H](CC[C@H](O[C@@H]3O[C@H](CO)[C@@H](O)[C@@H](O)[C@H]3O)C2(C)C)[C@]2(C)CC[C@]3(C)[C@@H]([C@H](C)C/C=C/C(C)(C)O)CC[C@@]3(C)[C@H]12 [Karaviloside III]
Reported Biology [2]: cytotoxic activity

C[C@H](C/C=C/C(C)(C)O)[C@H]1CC[C@@]2(C)[C@@H]3[C@@H](O[C@@H]4O[C@H](CO)[C@@H](O)[C@H](O)[C@H]4O)C=C4[C@@H](CC[C@H](O)C4(C)C)[C@]3(C=O)CC[C@]12C [Momordicoside L]
Reported Biology [2]: Weak α-glucosidase

C=C(C)/C=C/C[C@@H](C)[C@H]1CC[C@@]2(C)[C@@H]3[C@@H](O)C=C4[C@@H](CC[C@H](O)C4(C)C)[C@]3(C=O)CC[C@]12C [kuguacin J]
anticancer effect (different models): showed anticancer effect
